Experimental data from patent publication US12310936B2, “Pharmaceutical compositions for the treatment of cancer” (Seleq Oy, priority 2018, dated 2025).
Substitutions are numbered along the chain they refer to. Numbers in names are those of the source.

B1: Y101H: mutant human kynurenine aminotransferase I, tyrosine to histidine substitution at position 101 (protein, listed as Homo sapiens)
chain: MAKQLQARRLDGIDYNPWVEFVKLASEHDVVNLGQGFPDFPPPDFAVEAFQHAVSGDFMLNQYTKTFGYPPLTKILASFFGELLGQEIDPLRNVLVTVGGHGALFTAFQALVDEGDEVIIIEPFFDCYEPMTMMAGGRPVFVSLKPGPIQNGELGSSSNWQLDPMELAGKFTSRTKALVLNTPNNPLGKVFSREELELVASLCQQHDVVCITDEVYQWMVYDGHQHISIASLPGMWERTLTIGSAGKTFSATGWKVGWVLGPDHIMKHLRTVHQNSVFHCPTQSQAAVAESFEREQLLFRQPSSYFVQFPQAMQRCRDHMIRSLQSVGLKPIIPQGSYFLITDISDFKRKMPDLPGAVDEPYDRRFVKWMIKNKGLVAIPVSIFYSVPHQKHFDHYIRFCFVKDEATLQAMDEKLRKWKVEL
B2: H279F: mutant human kynurenine aminotransferase I, histidine to phenylalanine substitution at position 279 (protein, listed as Homo sapiens)
chain: B1 chain with H101Y, H279F

Columns and labels:
HCC cells = test: Modulation of SMC cytotoxicity by agents that favor beta-elimination; details: more prominent together with overexpression of KYAT1
Native HCC cells = test: HCC cell viability with SMC in the presence of alfaketoacid analogues, native HCC cells; type: cell-based; details: IC50 of SMC in the presence of the labelled alfaketoacid analogue, relative to PPA treated HCC cells (=100)
Description: (§1) Normal hepatocytes and malignant hepatocytes (HCC) were incubated in the presence of various concentrations of SMC. After 72 h, the ATP content of lysed cells, which is proportional to the number of viable cells, was measured using a luminescence-based CellTiter Glo Kit (Promega) according to manufacturer's protocol using a FLx100 Luminometer (BioTek).

KYAT induced cells = test: HCC cell viability with SMC in the presence of alfaketoacid analogues, KYAT induced cells; type: cell-based; details: IC50 of SMC in the presence of the labelled alfaketoacid analogue, relative to untreated KYAT induced cells
Description: as §1

human KYAT1 = test: Selenol production by mutated KYAT1 using SMC as a substrate; type: biochemical; details: mutant versus wild type KYAT1
Source text: The crystal structure of human KYAT1 has been determined for several complexes. The complex of KYAT1 with the cofactor PLP and the inhibitor L-Phe was used to create molecular models of Seleno-methyl Cystein (SMC) in complex with KYAT1 (FIG. 1). Our approach has been to identify residues that can be mutated in order to enhance beta-elimination of SMC, resulting in increased selenol production. This can be done by changing the substrate specificity of KYAT1 from kynurenine to SMC, or by changing kinetics of reprotonation of Calpha in the substrate. Several residues were mutated to check their potential involvement into the selenol formation.

Molecule | effect of the agent on the cytotoxicity of SMC (HCC cells) | SMC IC50 (percentage of control) (Native HCC cells) | selenol production by KYAT1 using SMC as a substrate (human KYAT1) | also measured
Cc1ncc(COP(=O)(O)O)c(C=O)c1O [PLP, pyridoxal 5′-phosphate] | increase the cytotoxicity of SMC |  |  | 
O=C(O)C(=O)Cc1ccccc1 [PPA, phenyl pyruvic acid] | increase the cytotoxicity of SMC | 100 percentage of control |  | 
COC(=O)CCC(=O)C(=O)OC [αKG, dimethyl-2-oxoglutarate] | increase the cytotoxicity of SMC |  |  | 
indole pyruvic acid [IPA] |  | 38 percentage of control |  | SMC IC50 (percentage of control) (KYAT induced cells): 35 percentage of control
B1 |  |  | higher selenol production | 
B2 |  |  | higher selenol production | 
